Laboratory results published in patent US20040005601A1, “Methods for targeting quadruplex DNA” (priority 2002, published 2004).

Tests used:
[1] = test system: Pu27 chair quadruplex (CMYC NHE III1); experiment: Taq polymerase stop assay at 60° C. with Pu27 insert template; format: biochemical
Procedure: The same wild-type and mutant sequences of the Pu27 were used in a Taq polymerase stop assay, which was described in Han et al., Nucl. Acids Res. 27: 537-542 (1999). This assay is a modification of that used by Weitzmann et al., J. Biol. Chem. 271, 20958-20964 (1996), and is also described below. A reaction mixture of template DNA (77-mer with a Pu27 or mutant Pu27 insert) (50 nM), Tris.HCl (50 mM), MgCl2 (10 mM), DTT (0.5 mM), EDTA (0.1 mM), BSA (60 ng), and 5′-end-labeled 18-mer primer (˜18 nM) was heated to 90° C. for 5 min and allowed to cool to ambient temperature over 30 min. Taq Polymerase (1 μl) was added to the reaction mixture, and the reaction was maintained at a constant temperature (45° C. for the mutant Pu27 comparison; 60° C. for the porphyrin comparison) for 30 min. (For the porphyrin comparison, following cooling to ambient temperature, the requisite amount of porphyrin solution was added to the reaction mixture and left at ambient temperature for 30 min prior to the addition of polymerase.) Following the addition of 10 μl stop buffer (formamide [20 ml], 1 M NaOH [200 μl], 0.5 M EDTA [400 μl], 10 mg bromophenol blue), the DNA fragments were separated with a sequencing gel (12%) and visualized on a phosphorimager. Adenine sequencing (indicated by “A” at the top of the gel) was performed using double-stranded DNA Cycle Sequencing System from Life Technologies. The general sequence for 77-mer template strands was TCCAACTATGTATAC-INSERT-[…], and the 1 8-mer primer had the sequence TAATACGACTCACTATAG.
To further determine whether this selectivity of TMPyP4 versus TMPyP2 for the chair conformation correlated with an effect on CMYC transcription, a Taq polymerase stop assay was performed at an elevated temperature (60° C.) to partially destabilize the arresting quadruplex structure in the presence of increasing concentrations of TMPyP2 and TMPyP4. […] This is in agreement with the differential effects of the two compounds on CMYC expression in vitro and sensitivity in vivo to tumors that overexpress CMYC (MX-1 and PC-3).

[2] = test system: CMYC; experiment: CMYC expression in Ramos Burkitt's lymphoma cell line (NHE III1 retained); format: cell-based
Procedure: (§1) The importance of the NHE III1 sequence in mediating the CMYC transcriptional inhibition by TMPyP4 was assessed. Two Burkitt's lymphoma cell lines with different translocation break points within the CMYC and immunoglobulin loci were analyzed, which are referred to as the Ramos cell line and the CA46 cell line. While the Ramos cell line retained the NHE III1 during the translocation, the CA46 cell line lost this element, together with the P1 and P2 promoters (FIG. 5A). When the NHE III1 element was deleted, as in the CA46 cell line, TMPyP4 had no effect on CMYC transcriptional activation.

[3] = test system: G-quadruplex structures; conditions: cited from earlier work
[4] = test system: CMYC; conditions: cited from earlier work
[5] = test system: Pu27 chair G-quadruplex; experiment: Porphyrin photocleavage of Pu27 chair quadruplex; format: binding; conditions: exposure to light
Description: The two quadruplex conformations of Pu27 were contacted with compounds known to bind quadruplex structures. Specifically, the two conformations were contacted with TMPyP4 and TMPyP2 (FIG. 4A) to further confirm the biologically relevant quadruplex conformation (FIGS. 4B or 4C). It has been shown that both TMPyP4 and TMPyP2 catalyze the oxidation of DNA upon exposure to light, which results in DNA strand breakage in proximity to the binding sites (Han et al., J. Am. Chem. Soc. 123: 8902-8913 (2001)).
An identical cleavage pattern was produced by both compounds for the basket quadruplex (FIG. 4B). DNA damage was centered on the constituent guanines of the six-base bridging loop, inferring that both porphyrins are able to bind to this region, but in a nonspecific way that is neither intercalating nor end-stacking (FIG. 4A).

[6] = test system: CMYC; experiment: CMYC transcription in CA46 Burkitt's lymphoma cell line (NHE III1 deleted); format: cell-based; conditions: NHE III1 element deleted
Procedure: as §1

[7] = test system: RET; experiment: RET RNA expression in MiaPaCa cells (RT-PCR); format: cell-based, human; conditions: for downregulation of RET RNA expression: IC70 concentration
Procedure: The effects of two test molecules also were assessed for the RET quadruplex. MiaPaCa-2 (human pancreatic tumor) were obtained from ATCC and were cultured at 37° C./5% CO2 in RPMI medium (Cellgro) with 10% fetal bovine serum (FBS), 50 U/ml penicillin G sodium, and 50 U/ml streptomycin sulfate (Gibco/BRL). Cells were treated with TMPyP4 and telomestatin (for the latter molecule, see, e.g., Shin-ya et al., J. Am. Chem. Soc. 123:1262 (2001)) when they reached ˜50% confluency. MiaPaCa cells were first washed with 5 ml of sterile phosphate-buffered saline (PBS, Fisher Scientific). The PBS was aspirated from the cells by vacuum, and replaced with 5 ml of Opti-MEM medium (Gibco-BRL) containing 6 μl Lipofectin (Invitrogen). Compounds then were added to the medium. Cells were allowed to grow at 37° C./5% CO2 for 6 hours to allow for transfection, and the medium was replaced with normal growth medium. […] The trypsin was neutralized with an equal volume of culture medium, the cells were then pelleted from this mixture by centrifugation at 500×gravity, the supernatant was aspirated, and the pellet was washed in PBS, recentrifuged, and frozen at −80° C.
RET RNA then was extracted from the cells. Cell pellets were thawed and resuspended in 400 μl of a buffer from a commercially available kit (i.e., Buffer RA1 from the NucleoSpin RNA II Kit (Clontech)). Total cellular RNA extraction was performed according to the manufacturer's protocol. Reverse transcription was performed to convert mRNA (i.e., polyadenylated RNA) to cDNA, and RET-specific primers were used in PCR to amplify RET message.

[8] = test system: CMYC; experiment: CMYC expression in MiaPaCa cells; format: cell-based, human; conditions: 100 μM
[9] = test system: CMYC quadruplex; experiment: Stabilization of CMYC quadruplex structure (polymerase arrest / chemical footprinting); format: biochemical
Description: (§2) Nucleic acids in a chair conformation often have similar but not identical structures when compared to one another and differences can manifest in loop size and nucleotide sequence, quadruplex geometry, quadruplex stability, the number of alternative chair structures for a given nucleotide sequence, and chemical reactivity, and binding of other molecules. Polymerase arrest assays and chemical footprinting studies applied to the CMYC chair quadruplex structure as described hereafter also were applied to nucleotide sequences upstream of the PDGFA and RET genes. It was determined that the NHE regions 5′ of the RET and PDGFA genes formed chair quadruplex structures that regulated transcription. FIG. 6A depicts a generalized quadruplex chair structure formed in the CMYC, PDGFA, and RET regulatory regions. In this chair structure, CMYC and RET have two stable tetrads and PDGFA has three stable tetrads. The N1 loop for CMYC is TG, for RET is GCG, and for PDGFA is CG. The N2 loop for CMYC is GAG, for RET is GCG, and for PDGFA is GCG. The N3 loop for CMYC is TG, for RET is GCG, and for PDGFA is CG (form A) or AG (form B). The different forms of the PDGFA quadruplex are depicted in FIG. 6C and the RET quadruplex structure is depicted in FIG. 6B. […]

[10] = test system: RET quadruplex; experiment: Stabilization of RET quadruplex structure (polymerase arrest / chemical footprinting); format: biochemical
Description: as §2

[11] = test system: PDGFA quadruplex; experiment: Stabilization of PDGFA quadruplex structure (polymerase arrest / chemical footprinting); format: biochemical
Description: as §2

[12] = test system: RET quadruplex; experiment: Photo-induced cleavage of the RET quadruplex; format: binding

Compound	stabilization of the quadruplex arrest site ([1]; up to 20 μM compound, 60° C.)	effect on CMYC expression [2]	binding to G-quadruplex structures [3]	effect on CMYC transcription and protein expression [4]	polymerase arrest at quadruplex arrest site ([1]; 0.5 μM compound, 60° C.) [%]	polymerase arrest at quadruplex arrest site ([1]; 5 μM compound, 60° C.)	conformation of Pu27 stabilized ([1]; chair versus basket)	photocleavage pattern of chair G-quadruplex [5]	effect on CMYC transcriptional activation [6]	downregulation of RET ([7]; 100 μM)	downregulation of CMYC [8]	stabilization of CMYC quadruplex structure [9]	stabilization of RET quadruplex structure [10]	stabilization of PDGFA quadruplex structure [11]	binding site on RET quadruplex from photo-induced cleavage [12]	downregulation of RET RNA expression ([7]; after 48 hours)	downregulation of RET RNA expression ([7]; after 72 hours)
C[n+]1ccccc1-c1c2nc(c(-c3cccc[n+]3C)c3ccc([nH]3)c(-c3cccc[n+]3C)c3ccc([nH]3)c(-c3cccc[n+]3C)c3nc1C=C3)C=C2 [TMPyP2]	only modestly stabilized	not	bound with less affinity	not													
C[n+]1ccc(-c2c3nc(c(-c4cc[n+](C)cc4)c4ccc([nH]4)c(-c4cc[n+](C)cc4)c4ccc([nH]4)c(-c4cc[n+](C)cc4)c4nc2C=C4)C=C3)cc1 [TMPyP4]		lowered CMYC expression	able to bind	lowered	~65	virtually total arrest	stabilizes the chair conformation over the basket conformation	specific cleavage pattern	no effect	did not significantly downregulate	about 50%	stabilized	not the RET quadruplex	stabilized	binds above and below the two stable tetrads		
Cc1oc2nc1-c1nc(co1)-c1nc(co1)-c1nc(co1)-c1nc(co1)-c1nc(co1)C1=NC(CS1)c1nc-2c(C)o1 (centres unmarked) [telomestatin]																at least 50%	at least 50%
